Assay results reported in patent US20010005714A1, “AMPHIPATHIC MOLECULES AS CHOLESTEROL AND OTHER LIPID UPTAKE INHIBITORS” (priority 1996, published 2001).

Key:
[1] = Denaturation by 10% TCA or boiling/chilling: protein remaining in supernatant; type: physicochemical
Text: Since the characterisation of sheep apo A-1 has not been reported yet, the physical characteristics of human and rabbit apo A-1 are reported for comparison (Chapman, Academic Press, Inc. San Diego, New York, Boston, London, Sydney, Tokyo. Toronto 70-143 1986)). Fr.28-PBE94 was subjected to N-terminal amino acid analysis. The first 29 amino acids of fr.28-PBE94 were 79.3% identical with rat apo A-1, 69.0% with rabbit apo A-1, 86.2% with bovine apo A-1 and 65.0% with human apo A-1. Fr.28-PBE94 cross-reacted with mouse monoclonal anti-human apo A-1 antibodies in Western blotting experiments. […] This is the floating density of high-density lipoproteins. After subjecting fr.28-PBE94 to the guanidine HCl treatment according to Nichols et al. (Nichols et al., Biochimica et Biophysica Acta 446 226-239 (1976)), fr.28-PBE94 was delipidated, showing the same behaviour as human apo A-1. […] Denatured proteins were removed by centrifugation, and protein and inhibitory activity remaining in the supernatant were determined (Table 4).

[2] = test system: rabbit BBMV; test: Dose response of cholesteryl oleate uptake from egg PC SUVs by rabbit BBMV (FIG. 4B); type: biochemical; settings: donor 0.05 mg/ml total lipid, acceptor 1.7 mg protein/ml, 20 min at 25° C., curve fits of FIG. 4B
Experimental: Small unilamellar vesicles of egg phosphatidylcholine containing 1 mol % cholesteryl oleate and a trace amount of (1,2-^3H2 (N)]-cholesteryl oleyl ether (37 Ci/mmol, from Amersham, UK) as the donor were made as described in Example 1 and BBMVs as the acceptor were prepared from rabbit small intestine (see Example 1). Donor and acceptor both dispersed in Tris/NaCl buffer (0.05 M Tris HCl pH 7.4, 0.15 M NaCl, 0.02% NaN3) and a solution of human apo A-1 or sheep HDL in the same buffer were mixed at time zero (total volume: 0.1 ml) so that the final concentrations of donor and acceptor were 0.05 mg/ml total lipid and 1.7 mg protein/ml, respectively. After incubation of the suspension of donor and acceptor in the presence of inhibitor for 20 min. at 25° C., the reaction was stopped by dilution with 2 vol. of Tris/NaCl buffer. Donor and acceptor were separated by centrifugation in the airfuge at 115,000 g for 2 min. at […]., and the radioactivities in the supernatant containing donor vesicles and in the pellet containing BBMVs were determined in a BECKMAN™ LS 7500 scintillation counter. […]
Experimental conditions were as described for FIG. 4A. The cholesterol absorption activity of BBMVs measured in the absence of inhibition was taken as 100% and the loss in activity observed in the presence of inhibitor is expressed as %. […]

[3] = test system: brush border membrane vesicles (BBMV); test: IC50 of cholesteryl oleate uptake at the brush border membrane (Example 6); type: biochemical, rabbit; settings: donor 0.1 mg total lipid/ml, acceptor 2 mg protein/ml; 20 min at 25° C.
Experimental: An appropriate amount of inhibitor dissolved in 84.5 μl buffer (0.05 M Tris pH 7.4, 0.15 M NaCl) is mixed in an Eppendorf tube at time zero with 5 μl of a dispersion of donor and 10.5 μl of a dispersion of acceptor (i.e. brush border membrane vesicles (BBMV)) in the same buffer. The final concentration of the donor vesicles was 0.1 mg total lipid/ml, that of the acceptor was 2 mg protein/ml. The resulting mixture was incubated for 20 min at 25° C., and the reaction was stopped by adding 60 μl of the incubation medium to 120 μl ice-cold bufferin an airfuge tube. The diluted dispersion was immediately centrifuiaed in the airfuge at […] for 2 min. at 4° C. to separate donor vesicles from BBMV. Two 60 μl aliquots of the donor (=supernatant) were counted in a Beckman LS-7500 liquid scintillating counter to determine the radioactivity remaining in tbe donor.
Small unilamellar egg phosphatidycholine (PC) vesicles containing 1 mol % of cholesterol oleate and a trace amount of ^3H-cholesterol oleyl ether were made by dissolving the appropriate amounts of the lipids in CHCl3/CH3OH, (2:1, by vol.), taking the solution to dryness on a rotary evaporator and drying the residue in vacuo. The dried lipid film was dispersed in the appropriate volume of buffer by hand-shaking. The lipid dispersion was subjected to tip sonication as described in Brunner et al, J. Biol. Chem. 253 7538-7546 (1978). The resulting donor dispersion in buffer was centrifuged in the airfuge at 100000 g for 2 min at […]. Only the top 80% of the donor dispersion after centrifugation was used in the lipid uptake experiment.
BBMV were prepared from frozen rabbit small intestine according to Hauser et al (Biochim. Biophys. Acta 602 567-577 (1980)). Prior to use in the uptake experiment determining IC50 values the BBMV were washed to remove any free protein liberated from the BBM. To this end the BBMV dispersion was diluted with buffer 1:1 in an airfuge tube, and the diluted dispersion was centrifuged in the airfuga at 100000 g for 2 min at […]. The supernatant was is carefully decanted, the pellet was resuspended in buffer to the original volume of the BBMV dispersion, and the dispersion was homogenized. […]

[4] = test system: rabbit BBMVs; test: Sterol uptake inhibition using mixed bile salt micelles as donors; type: biochemical; settings: 1.56 μM human apo A-1 or 1.98 μM fr.28-PBE94; 5 mM taurocholate, 0.6 mM oleic acid, 2 μM cholesterol; 10 min at 25° C.
Experimental: Since bile salt micelles are the most important lipid carriers in the small intestine, it is relevant to measure sterol uptake inhibition using mixed bile salt micelles as the donor. Donor micelles made of 50 mM taurocholate, 6 mM oleic acid and 20 μM radiolabelled cholesterol were prepared as follows: the lipids were mixed at these concentrations in 2:1 chloroform:methanol and the organic solvent was removed by rotary evaporation. The resulting lipid film was dried under high vacuum for at least 1 hour. The dried film was dispersed in the appropriate amount of Tris/NaCl to yield the desired micellar concentration. Acceptor rabbit BBMVs, prepared as described in Example 2, were mixed with either 1.56 μM human apo A-1 or 1.98 μM fr.28-PBE94. Donor mixed micelles were added to the acceptor/inhibitor dispersion to a final concentration of 5 mM taurocholate, 0.6 mM oleic acid and 2 μM radiolabelled cholesterol and the mixture incubated for 10 min at 25° C. […] Radioactivities in both pellet and supernatant were measured and results evaluated as described in Example 2; incubation with apo A-1 yielded 12% of the inhibitory activity measured at the same inhibitor concentration using SUVs as donor, and incubation with fr.28-PBE94 yielded 23% of the inhibitory activity measured at the same inhibitor concentration using SUVs as donor.

[5] = taken from Chapman (1986), for comparison; cited from earlier work
[6] = test system: small intestine of Sprague-Dawly rats; test: In vivo cholesterol absorption in the small intestine of rats; settings: ApoA-1 added to the diet
Text: The biological relevance of the inhibitory effect observed in vitro is confirmed by an in vivo experiment showing that cholesterol absorption in the small intestine of Sprague-Dawly rats can be inhibited by the amphipathic principle by more than 80%. ApoA-1 added to the diet was used as the inhibitor, because this protein could be purified from human serum in sufficient quantity. Bases or the experimental evidence presented we ppropose that the inhibitory effect on cholesterol uptake is not restricted to particular amphipathic molecules. It is likely that the chemical nature of the amphipathic compound is of secondary importance and that the geometry and the polarity of the compound are the decisive determinants. The results presented here have important implications since amphipathic molecules belonging to any class of biological compounds such as lipids, proteins or carbohydrates might inhibit cholesterol uptake by the brush border membrane.

human apo A-1: human apolipoprotein A-1, prepared from human HDL by delipidation and ion exchange chromatography
protein (%) remaining in the supernatant ([1]; after TCA precipitation (10% TCA)): 0%
protein (%) remaining in the supernatant ([1]; after boiling/chilling (4 cycles, 5 min each)): 27%
IC-50 [2]: 25 µg/mL
IC50 [3]: 0.5 ± 0.1 µM
IC50 (μg/mL) of cholesteryl oleate uptake at the brush border membrane [3]: 14 ± 3 µg/mL
inhibitory activity with mixed bile salt micelles as donor, as % of that measured at the same inhibitor concentration using SUVs as donor [4]: 12%
isoelectric point [5]: 5.52
inhibition of cholesterol absorption in the small intestine [6]: more than 80%
